Assay results taken from ChEMBL document CHEMBL3102738, “Synthesis and biological evaluation of nitric oxide-donating analogues of sulindac for prostate cancer treatment” (Bioorg Med Chem, 2014).
Active and inactive are the calls of the source. The calls are words filed in the database; no cut-off is given here.

Columns and labels:
[1] = tested on: PC-3; assay: Cytotoxicity against human PC3 cells assessed as cell viability at 50 uM after 24 hrs by crystal violet method (reference value: 99.09 +/- 9.87%); assay type: functional; settings: PC-3, 24 h, read-out: Activity
[2] = tested on: PC-3; assay: Cytotoxicity against human PC3 cells assessed as cell viability at 50 uM after 48 hrs by crystal violet method (reference value: 100.87 +/- 4.87%); assay type: functional; settings: PC-3, 48 h, read-out: Activity
[3] = tested on: PC-3; assay: Cytotoxicity against human PC3 cells after 72 hrs by crystal violet method; assay type: functional, cell-based; settings: PC-3, 72 h
[4] = tested on: PC-3; assay: Cytotoxicity against human PC3 cells assessed as cell viability at 50 uM after 72 hrs by crystal violet method (reference value: 95.69 +/- 7.66%); assay type: functional; settings: PC-3, 72 h, read-out: Activity
[5] = Induction of NO release in glutathione buffer at 400 uM after 1 hr by Griess assay relative to sulindac; assay type: physicochemical
[6] = tested on: PC-3; assay: Cytotoxicity against human PC3 cells assessed as cell viability at 500 nM after 72 hrs by crystal violet method; assay type: functional; settings: PC-3, 72 h, read-out: Activity
[7] = Induction of NO release in glutathione buffer assessed as nitrite level at 400 uM after 1 hr by Griess assay (reference value: 3.3 +/- 1.2 uM); assay type: physicochemical
[8] = tested on: PC-3; assay: Cytotoxicity against human PC3 cells at 0.05 to 0.5 uM after 72 hrs by crystal violet method
[9] = tested on: PC-3; assay: Cytotoxicity against human PC3 cells at 50 nM after 72 hrs by crystal violet method; assay type: functional, cell-based

Row | Activity [5] [%] | Activity [7] [µM] | Compound | viability at 50 µM [1] [%] | viability at 50 µM [2] [%] | IC50 [3] [µM] | viability at 50 µM [4] [%] | viability at 0.5 µM [6] [%] | Activity [8] | Activity [9]
1 |  |  | CC1=C(CC(=O)OCCOCCOc2no[n+]([O-])c2S(=O)(=O)c2ccccc2)c2cc(F)ccc2/C1=C\c1ccc([S+](C)[O-])cc1 (stereo unspecified) | 0 | 0 | 26 | 0 |  |  | 
2 |  |  | CSc1ccc(/C=C2/C(C)=C(CC(=O)OCCCOc3no[n+]([O-])c3S(=O)(=O)c3ccccc3)c3cc(F)ccc32)cc1 | 34.9 | 21.2 | 48.6 | 15.7 |  |  | 
3 | 10.3 | 41.1 | CSc1ccc(/C=C2/C(C)=C(CC(=O)OCCOc3no[n+]([O-])c3S(=O)(=O)c3ccccc3)c3cc(F)ccc32)cc1 | 0 | 0 | 41.4 | 0 | 11.9 |  | 
4 |  |  | CSc1ccc(/C=C2/C(C)=C(CC(=O)NCCNC(=O)/N=c3/c[n+](-c4ccccc4)[n-]o3)c3cc(F)ccc32)cc1 | 66.5 | 34.7 |  | 21.3 |  | inactive | 
5 | 12.8 | 51.1 | CC1=C(CC(=O)OC/C=C\COc2no[n+]([O-])c2S(=O)(=O)c2ccccc2)c2cc(F)ccc2/C1=C\c1ccc([S+](C)[O-])cc1 (stereo unspecified) | 0 | 0 | 12.1 | 0 |  |  | Active
6 | < 1 | 1.1 | CC1=C(CC(=O)O)c2cc(F)ccc2/C1=C\c1ccc([S+](C)[O-])cc1 (stereo unspecified) [SULINDAC] | 87.3 | 101 |  | 89.3 |  |  | 
7 | 8.2 | 33 | CSc1ccc(/C=C2/C(C)=C(CC(=O)OCCCCOc3no[n+]([O-])c3S(=O)(=O)c3ccccc3)c3cc(F)ccc32)cc1 | 0 | 0 | 40.3 | 0 | 9.17 |  | 
8 |  |  | CC1=C(CC(=O)NCCNC(=O)/N=c2/c[n+](-c3ccccc3)[n-]o2)c2cc(F)ccc2/C1=C\c1ccc([S+](C)[O-])cc1 (stereo unspecified) | 74 | 46.7 |  | 36.3 |  | inactive | 
9 |  |  | CSc1ccc(/C=C2/C(C)=C(CC(=O)NCCOC(=O)/N=c3/c[n+](-c4ccccc4)[n-]o3)c3cc(F)ccc32)cc1 | 57.6 | 27.1 |  | 17.7 |  | inactive | 
10 | 13.6 | 54.4 | CC1=C(CC(=O)OCCCCCCOc2no[n+]([O-])c2S(=O)(=O)c2ccccc2)c2cc(F)ccc2/C1=C\c1ccc([S+](C)[O-])cc1 (stereo unspecified) | 0 | 0 | 6.1 | 0 |  |  | Active
11 |  |  | CC1=C(CC(=O)OCCOc2no[n+]([O-])c2S(=O)(=O)c2ccccc2)c2cc(F)ccc2/C1=C\c1ccc([S+](C)[O-])cc1 (stereo unspecified) | 0 | 0 | 27.9 | 0 |  |  | 
12 |  |  | CC1=C(CC(=O)/N=c2\c[n+](-c3ccccc3)[n-]o2)c2cc(F)ccc2/C1=C\c1ccc([S+](C)[O-])cc1 (stereo unspecified) | 64.6 | 29.8 |  | 20.6 |  | inactive | 
